# In patent publication US9708334B2, “Substituted 2,4,5,6-tetrahydropyrrolo[3,4-c]pyrazole and 4,5,6,7-tetrahydro-2H-pyrazolo[4,3-c]pyridine compounds as GlyT1 inhibitors” (DART NEUROSCIENCE (CAYMAN) LTD., priority 2014, dated 2017):
# Biological target: T1, GlyT1 (Homo sapiens, UniProt P48067)
# T1 construct: expressed in transfected cells
# T1 sequence (P48067 1-706): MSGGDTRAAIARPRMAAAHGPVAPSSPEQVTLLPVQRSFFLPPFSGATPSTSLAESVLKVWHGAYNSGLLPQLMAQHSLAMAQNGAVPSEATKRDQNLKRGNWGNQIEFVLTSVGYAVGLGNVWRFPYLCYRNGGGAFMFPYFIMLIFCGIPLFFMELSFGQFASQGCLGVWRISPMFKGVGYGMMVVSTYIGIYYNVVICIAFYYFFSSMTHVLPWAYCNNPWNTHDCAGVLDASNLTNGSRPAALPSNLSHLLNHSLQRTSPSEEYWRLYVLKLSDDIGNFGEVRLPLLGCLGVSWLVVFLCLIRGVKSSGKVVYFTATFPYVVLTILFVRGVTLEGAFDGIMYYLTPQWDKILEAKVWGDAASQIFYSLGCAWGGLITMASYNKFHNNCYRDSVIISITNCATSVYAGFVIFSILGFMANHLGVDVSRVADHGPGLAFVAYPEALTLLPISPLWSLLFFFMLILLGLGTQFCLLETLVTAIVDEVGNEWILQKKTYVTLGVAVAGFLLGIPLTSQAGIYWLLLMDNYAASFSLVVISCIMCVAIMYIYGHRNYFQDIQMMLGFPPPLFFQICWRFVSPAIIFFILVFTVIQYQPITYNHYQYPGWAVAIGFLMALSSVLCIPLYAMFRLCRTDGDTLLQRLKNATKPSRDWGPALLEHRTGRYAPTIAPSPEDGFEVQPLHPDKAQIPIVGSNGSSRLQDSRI
# Assay: Glycine Transporter 1 (GlyT1) uptake assay, scintillation proximity assay of [14C]-glycine uptake
# Assay type: cell-based
# Settings: SPA, four parameter logistic fit, read-out: GlyT1 (pIC50) (converted)
# Outline: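 IC50 values derive from four-parameter logistic curves fitted to dose-response data. Uptake of [14C]-glycine measured in scintillation proximity format.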
row,IC50 [nM],Compound
1,< 100,CCS(=O)(=O)c1ccc(N2CCC(F)(F)CC2)c(C(=O)N2Cc3cn(-c4cncc(F)c4)nc3C2)c1 [Example 112]
2,< 100,"CCS(=O)(=O)c1ccc(O[C@@H](C)C(F)(F)F)c(C(=O)N2Cc3cn(-c4ccnc(C)c4)nc3C2)c1 [Example 113, 4-{5-[5-(Ethanesulfonyl)-2-{[(2S)-1 1 1-trifluoropropan-2-yl]oxy}benzoyl]-2H 4H 5H 6H-pyrrolo[3,4-c]pyrazol-2-yl}-2-methylpyridine]"
3,< 100,"CCS(=O)(=O)c1ccc(O[C@@H](C)C(F)(F)F)c(C(=O)N2Cc3cn(-c4cncc(F)c4)nc3C2)c1 [Example 114, 3-{5-[5-(Ethanesulfonyl)-2-{[(2S)-1 1 1-trifluoropropan-2-yl]oxy}benzoyl]-2H 4H 5H 6H-pyrrolo[3,4-c]pyrazol-2-yl}-5-fluoropyridine]"
4,< 100,"CS(=O)(=O)c1ccc(N2CCCCC2)c(C(=O)N2Cc3cn(-c4ccc(F)cn4)nc3C2)c1 [Example 115, 5-Fluoro-2-{5-[5-methanesulfonyl-2-(piperidin-1-yl)benzoyl]-2H 4H 5H 6H-pyrrolo[3,4-c]pyrazol-2-yl}pyridine]"
5,< 100,"CS(=O)(=O)c1ccc(N2CCCCC2)c(C(=O)N2Cc3cn(-c4cncc(F)c4)nc3C2)c1 [Example 116, 3-Fluoro-5-{5-[5-methanesulfonyl-2-(piperidin-1-yl)benzoyl]-2H 4H 5H 6H-pyrrolo[3,4-c]pyrazol-2-yl}pyridine]"
6,< 100,"Cc1cc(-n2cc3c(n2)CN(C(=O)c2cc(S(C)(=O)=O)ccc2N2CCCCC2)C3)ccn1 [Example 117, 4-{5-[5-Methanesulfonyl-2-(piperidin-1-yl)benzoyl]-2H 4H 5H 6H-pyrrolo[3,4-c]pyrazol-2-yl}-2-methylpyridine]"
7,100 to 1000,"CS(=O)(=O)c1ccc(OCC2CC2)c(C(=O)N2Cc3cn(-c4ccccc4)nc3C2)c1 [Example 118, 5-[2-(Cyclopropylmethoxy)-5-methanesulfonylbenzoyl]-2-phenyl-2H 4H 5H 6H-pyrrolo[3,4-c]pyrazole]"
8,< 100,"CS(=O)(=O)c1ccc(OCC2CC2)c(C(=O)N2Cc3cn(-c4ccccc4F)nc3C2)c1 [Example 119, 5-[2-(Cyclopropylmethoxy)-5-methanesulfonylbenzoyl]-2-(2-fluorophenyl)-2H 4H 5H 6H-pyrrolo[3,4-c]pyrazole]"
9,< 100,"CS(=O)(=O)c1ccc(N2CCC(F)(F)CC2)c(C(=O)N2Cc3cn(-c4ccc(F)cn4)nc3C2)c1 [Example 120, 2-{5-[2-(4 4-Difluoropiperidin-1-yl)-5-methanesulfonylbenzoyl]-2H 4H 5H 6H-pyrrolo[3,4-c]pyrazol-2-yl}-5-fluoropyridine]"
10,< 100,"C[C@H](Oc1ccc(S(C)(=O)=O)cc1C(=O)N1Cc2cn(-c3cc(F)ccc3F)nc2C1)C(F)(F)F [Example 121, 2-(2 5-Difluorophenyl)-5-(5-methanesulfonyl-2-{[(2S)-1 1 1-trifluoropropan-2-yl]oxy}benzoyl)-2H 4H 5H 6H-pyrrolo[3,4-c]pyrazole]"
11,< 100,"Cc1ccc(F)c(-n2cc3c(n2)CN(C(=O)c2cc(S(C)(=O)=O)ccc2O[C@@H](C)C(F)(F)F)C3)c1 [Example 122, 2-(2-Fluoro-5-methylphenyl)-5-(5-methanesulfonyl-2-{[(2S)-1 1 1-trifluoropropan-2-yl]oxy}benzoyl)-2H 4H 5H 6H-pyrrolo[3,4-c]pyrazole]"
12,< 100,"CS(=O)(=O)c1ccc(N2CCC(F)(F)CC2)c(C(=O)N2Cc3cn(-c4cc(F)ccc4F)nc3C2)c1 [Example 123, 1-{2-[2-(2 5-Difluorophenyl)-2H 4H 5H 6H-pyrrolo[3,4-c]pyrazole-5-carbonyl]-4-methanesulfonylphenyl}-4 4-difluoropiperidine]"

# The remaining lines, values behind:
row,Compound,IC50 [nM]
1,"Cc1cccc(-n2cc3c(n2)CN(C(=O)c2cc(S(=O)(=O)C(C)C)ccc2OC(C)C)C3)c1F [Example 94, 2-(2-Fluoro-3-methylphenyl)-5-[2-(propan-2-yloxy)-5-(propane-2-sulfonyl)benzoyl]-2H 4H 5H 6H-pyrrolo[3,4-c]pyrazole]",1000 to 10000
2,"CC(C)Oc1ccc(S(=O)(=O)C(C)C)cc1C(=O)N1Cc2cn(-c3ccccc3F)nc2C1 [Example 95, 2-(2-Fluorophenyl)-5-[2-(propan-2-yloxy)-5-(propane-2-sulfonyl)benzoyl]-2H 4H 5H 6H-pyrrolo[3,4-c]pyrazole]",1000 to 10000
3,"Cc1cccc(-n2cc3c(n2)CN(C(=O)c2cc(S(=O)(=O)C(C)C)ccc2OC(C)C)C3)c1 [Example 96, 2-(3-Methylphenyl)-5-[2-(propan-2-yloxy)-5-(propane-2-sulfonyl)benzoyl]-2H 4H 5H 6H-pyrrolo[3,4-c]pyrazole]",1000 to 10000
4,"CC(C)Oc1ccc(S(=O)(=O)C(C)C)cc1C(=O)N1Cc2cn(-c3ccccc3)nc2C1 [Example 97, 2-Phenyl-5-[2-(propan-2-yloxy)-5-(propane-2-sulfonyl)benzoyl]-2H 4H 5H 6H-pyrrolo[3,4-c]pyrazole]",1000 to 10000
5,"CC(C)Oc1ccc(S(=O)(=O)C(C)C)cc1C(=O)N1Cc2cn(-c3ccc(F)cc3)nc2C1 [Example 98, 2-(4-Fluorophenyl)-5-[2-(propan-2-yloxy)-5-(propane-2-sulfonyl)benzoyl]-2H 4H 5H 6H-pyrrolo[3,4-c]pyrazole]",100 to 1000
6,"CC(C)Oc1ccc(S(=O)(=O)C(C)C)cc1C(=O)N1Cc2cn(-c3ccc(F)c(F)c3)nc2C1 [Example 99, 2-(3 4-Difluorophenyl)-5-[2-(propan-2-yloxy)-5-(propane-2-sulfonyl)benzoyl]-2H 4H 5H 6H-pyrrolo[3,4-c]pyrazole]",100 to 1000
7,"Cc1cc(-n2cc3c(n2)CN(C(=O)c2cc(S(C)(=O)=O)ccc2N2CCC(F)(F)CC2)C3)ccn1 [Example 101, 4-{5-[2-(4 4-Difluoropiperidin-1-yl)-5-methanesulfonylbenzoyl]-2H 4H 5H 6H-pyrrolo[3,4-c]pyrazol-2-yl}-2-methylpyridine]",< 100
8,"CS(=O)(=O)c1ccc(OCC(F)(F)F)c(C(=O)N2Cc3cn(-c4ccccc4)nc3C2)c1 [Example 102, 5-[5-Methanesulfonyl-2-(2 2 2-trifluoroethoxy)benzoyl]-2-phenyl-2H 4H 5H 6H-pyrrolo[3,4-c]pyrazole]",< 100
9,"CS(=O)(=O)c1ccc(OCC(F)(F)F)c(C(=O)N2Cc3cn(-c4ccc(F)cc4)nc3C2)c1 [Example 103, 2-(4-Fluorophenyl)-5-[5-methanesulfonyl-2-(2 2 2-trifluoroethoxy)benzoyl]-2H 4H 5H 6H-pyrrolo[3,4-c]pyrazole]",< 100
10,"CS(=O)(=O)c1ccc(OCC(F)(F)F)c(C(=O)N2Cc3cn(-c4ccccc4F)nc3C2)c1 [Example 104, 2-(2-Fluorophenyl)-5-[5-methanesulfonyl-2-(2 2 2-trifluoroethoxy)benzoyl]-2H 4H 5H 6H-pyrrolo[3,4-c]pyrazole]",< 100
11,"Cc1cccc(-n2cc3c(n2)CN(C(=O)c2cc(S(C)(=O)=O)ccc2OCC(F)(F)F)C3)c1 [Example 105, 5-[5-Methanesulfonyl-2-(2 2 2-trifluoroethoxy)benzoyl]-2-(3-methylphenyl)-2H 4H 5H 6H-pyrrolo[3,4-c]pyrazole]",< 100
12,"Cc1cccc(-n2cc3c(n2)CN(C(=O)c2cc(S(C)(=O)=O)ccc2OCC(F)(F)F)C3)c1F [Example 106, 2-(2-Fluoro-3-methylphenyl)-5-[5-methanesulfonyl-2-(2 2 2-trifluoroethoxy)benzoyl]-2H 4H 5H 6H-pyrrolo[3,4-c]pyrazole]",< 100
13,"CS(=O)(=O)c1ccc(-c2cccc(F)c2)c(C(=O)N2Cc3cn(-c4ccc(F)cn4)nc3C2)c1 [Example 107, 5-Fluoro-2-{5-[2-(3-fluorophenyl)-5-methanesulfonylbenzoyl]-2H 4H 5H 6H-pyrrolo[3,4-c]pyrazol-2-yl}pyridine]",< 100
14,"CS(=O)(=O)c1ccc(-c2cccc(F)c2)c(C(=O)N2Cc3cn(-c4cncc(F)c4)nc3C2)c1 [Example 108, 3-Fluoro-5-{5-[2-(3-fluorophenyl)-5-methanesulfonylbenzoyl]-2H 4H 5H 6H-pyrrolo[3,4-c]pyrazol-2-yl}pyridine]",< 100
15,"Cc1cc(-n2cc3c(n2)CN(C(=O)c2cc(S(C)(=O)=O)ccc2-c2cccc(F)c2)C3)ccn1 [Example 109, 4-{5-[2-(3-Fluorophenyl)-5-methanesulfonylbenzoyl]-2H 4H 5H 6H-pyrrolo[3,4-c]pyrazol-2-yl}-2-methylpyridine]",< 100
16,"Cc1cccc(-n2cc3c(n2)CN(C(=O)c2cc(S(C)(=O)=O)ccc2N2CCC(F)(F)CC2)C3)c1 [Example 110, 4 4-Difluoro-1-{4-methanesulfonyl-2-[2-(3-methylphenyl)-2H 4H 5H 6H-pyrrolo[3,4-c]pyrazole-5-carbonyl]phenyl}piperidine]",< 100
17,"CCS(=O)(=O)c1ccc(N2CCC(F)(F)CC2)c(C(=O)N2Cc3cn(-c4ccnc(C)c4)nc3C2)c1 [Example 111, 4-{5-[2-(4 4-Difluoropiperidin-1-yl)-5-(ethanesulfonyl)benzoyl]-2H 4H 5H 6H-pyrrolo[3,4-c]pyrazol-2-yl}-2-methylpyridine]",< 100
